Results taken from PubChem BioAssay (NCI).
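Briefly, cells in 96-well plates were exposed to five compound concentrations for 48 h, and endpoints were estimated by linear interpolation. The concentration for 50% growth inhibition is given as GI50. At the TGI there is no net growth.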

Key:
Test in all cases: inhibition of tumour cell growth, NCI panel, 48 h
HCT-116 colon = test system: HCT-116 colon
UACC-257 melanoma = test system: UACC-257 melanoma
NCI-H460 lung = test system: NCI-H460 lung
NCI-H226 lung = test system: NCI-H226 lung
SK-MEL-2 melanoma = test system: SK-MEL-2 melanoma
SW-620 colon = test system: SW-620 colon
SK-MEL-28 melanoma = test system: SK-MEL-28 melanoma
PC-3 prostate = test system: PC-3 prostate
DU-145 prostate = test system: DU-145 prostate
ACHN renal = test system: ACHN renal

Row | Compound | TGI (HCT-116 colon) | TGI (UACC-257 melanoma) | TGI (NCI-H460 lung) | TGI (NCI-H226 lung) | TGI (SK-MEL-2 melanoma) | TGI (SW-620 colon) | TGI (SK-MEL-28 melanoma) | TGI (PC-3 prostate) | TGI (DU-145 prostate) | TGI (ACHN renal) | GI50 (PC-3 prostate) | GI50 (UACC-257 melanoma) | GI50 (DU-145 prostate) | GI50 (NCI-H460 lung) | GI50 (ACHN renal) | GI50 (NCI-H226 lung) | GI50 (SW-620 colon) | GI50 (SK-MEL-28 melanoma)
1 | COC(=O)[C@]1(c2ccc(N(C)C)cc2OC)C[C@@H]2CCCN(CCc3c1[nH]c1ccccc31)C2 | 55.5 µM | 39.6 µM | 33.7 µM | 37.6 µM | 36.2 µM | > 100 µM | 35.1 µM |  |  |  |  |  |  |  |  |  |  | 
2 | Cc1nc2ccc(F)cc2c(Cl)c1CCCl | 92.8 µM | > 100 µM | > 100 µM | > 100 µM |  | > 100 µM | > 100 µM | > 100 µM | > 100 µM | > 100 µM |  |  |  |  |  |  |  | 
3 | C=CC(C)C1(CCCOCc2ccccc2)C(=S)N2CCC3(CC24CCCC14)OCCO3 (stereo not drawn) |  | > 100 µM | > 100 µM | > 100 µM | > 100 µM | > 100 µM | > 100 µM |  |  | > 100 µM |  |  |  |  |  |  |  | 
4 | O=c1[nH]nc(Nc2ccccc2)c2nnn(C3CCCCC3)c12 | > 100 µM | > 100 µM | > 100 µM |  | > 100 µM |  | > 100 µM | > 100 µM | > 100 µM | > 100 µM |  |  |  |  |  |  |  | 
5 | CCCCCCCCCCCCCC[n+]1ccc(C(N)=O)cc1 |  | 6.08 µM | 8.18 µM | 4.01 µM |  | 11.2 µM | 7.49 µM | 2.88 µM | 10.7 µM | 15.9 µM | 0.703 µM | 2.24 µM | 2.66 µM | 2.58 µM | 3.47 µM | 1.52 µM | 2.31 µM | 2.83 µM
6 | Cn1c2ccccc2c2cc(N3CCCC3)c3c(c21)C(=O)N(c1ccccc1)C3=O | > 100 µM | > 100 µM | > 100 µM | > 100 µM |  | > 100 µM | > 100 µM | > 100 µM | > 100 µM | > 100 µM |  |  |  |  |  |  |  | 
7 | Cc1cc2c(c(S(=O)(=O)c3ccccc3[N+](=O)[O-])c1)NCCC2 |  |  | > 100 µM | > 100 µM | > 100 µM | > 100 µM | > 100 µM | > 100 µM | > 100 µM | > 100 µM |  |  |  |  |  |  |  | 
8 | CNC(=O)SCC(NC(=O)CCC(N)C(=O)O)C(=O)NCC(=O)O (stereo not drawn) | > 100 µM | > 100 µM | > 100 µM | > 100 µM | > 100 µM | > 100 µM | > 100 µM |  |  |  |  |  |  |  |  |  |  | 
9 | Cc1cc2n[n+]3[n-]cc(-c4ccccc4)n3c2cc1[N+](=O)[O-] | > 100 µM | > 100 µM | > 100 µM |  | > 100 µM | > 100 µM | > 100 µM | > 100 µM | > 100 µM | > 100 µM |  |  |  |  |  |  |  | 
10 | O[C@@H]1CCC[C@@H]2NC[C@@H](c3ccc4c(c3)OCO4)[C@H]12 |  | > 100 µM | > 100 µM | > 100 µM | > 100 µM | > 100 µM | > 100 µM | > 100 µM | > 100 µM | > 100 µM |  |  |  |  |  |  |  | 
11 | COc1ccc(-c2ncn(C[Si](C)(C)C)c2-c2ccc(OC)cc2)cc1 | 13 µM | 16.7 µM | 15.3 µM | 24.5 µM | 20.5 µM | 17 µM | 14.8 µM | 16.9 µM |  | 20.5 µM |  |  |  |  |  |  |  | 
12 | Cc1ccc(S(=O)(=O)C2=c3nc4ccccc4cc3=C3C(=O)c4ccccc4C(=O)C32)cc1 (stereo not drawn) | > 100 µM | > 100 µM | > 100 µM | > 100 µM | > 100 µM | > 100 µM | > 100 µM |  |  | > 100 µM |  |  |  |  |  |  |  | 
13 | COc1cc(C2C3=C(CCCC3=O)N(c3ccc(C)cc3)C3=C2C(=O)CCC3)c([N+](=O)[O-])cc1OC |  |  | > 100 µM | > 100 µM |  | > 100 µM | > 100 µM | > 100 µM |  | > 100 µM |  |  |  |  |  |  |  | 
14 | C=C(C)[C@H]1C2=CC(C)=C(O2)[C@@H](O)[C@H](C(=C)C)CCC2=C[C@H]1OC2=O |  | > 100 µM | > 100 µM | > 100 µM | > 100 µM | > 100 µM | > 100 µM | > 100 µM | > 100 µM | > 100 µM |  |  |  |  |  |  |  | 
15 | COC(=O)c1c2c(cc3c1CC1(Cc4cc5c(c(C(C)=O)c4C1)CCCC5)C3)CCCC2 (stereo not drawn) | > 100 µM | > 100 µM |  | > 100 µM | 44.5 µM |  |  | > 100 µM |  | > 100 µM |  |  |  |  |  |  |  | 
16 | NCCCNOCCCN | > 100 µM |  | > 100 µM |  | > 100 µM | > 100 µM | > 100 µM | > 100 µM | > 100 µM | > 100 µM |  |  |  |  |  |  |  | 
17 | CCCCCCCCCCCCCCCCCCNC(=S)/N=C/c1c(O)c2ccccc2[nH]c1=O | 30.4 µM | 37.1 µM | 32.6 µM | 63.3 µM | 52.2 µM | 42.4 µM | 40.4 µM |  | 29.7 µM | 30.9 µM |  |  |  |  |  |  |  | 
18 | O=C(Nc1ccccc1Cl)c1ccc([N+](=O)[O-])cc1 |  | > 100 µM | > 100 µM | > 100 µM | > 100 µM | > 100 µM | > 100 µM |  |  |  |  |  |  |  |  |  |  | 
19 | Cc1nc2c(cc1OCc1ccccc1)C(=O)C1=C(C2=O)C2OC(=O)CC2OC1(C)C (stereo not drawn) | 1.04 µM | 1.93 µM | 2.9 µM | 2.98 µM |  |  | 1.14 µM | 1.8 µM | 3.09 µM | 1.86 µM |  |  |  |  |  |  |  | 
20 | CC1(C)C2CCC1C(=O)[C@@]1(C=CC(=O)CC1)C2 (stereo partly drawn) | > 100 µM | > 100 µM | > 100 µM | > 100 µM |  | > 100 µM | > 100 µM | > 100 µM | > 100 µM | > 100 µM |  |  |  |  |  |  |  | 
21 | CC(C)C(=O)/C=C/S/C=C/C(=O)C(C)C |  | 6.5 µM | > 100 µM | 29.2 µM | > 100 µM | 17 µM | 21.1 µM |  | 29.4 µM | 5.27 µM |  |  |  |  |  |  |  | 
22 | OC12c3ccccc3C1CCCCCCCCCC21OCCO1 (stereo not drawn) | > 100 µM | > 100 µM | > 100 µM | > 100 µM | > 100 µM | > 100 µM | > 100 µM |  |  | > 100 µM |  |  |  |  |  |  |  | 
23 | COc1c(Br)cc2ccccc2c1-c1c(OC)c(Br)cc2ccccc12 |  | > 100 µM | > 100 µM | > 100 µM | > 100 µM | > 100 µM | > 100 µM | > 100 µM | > 100 µM | > 100 µM |  |  |  |  |  |  |  | 
24 | O=[N+]([O-])/C=C(\CS(=O)(=O)c1ccccc1)c1ccc2c(c1)OCO2 | > 100 µM |  |  | 84.5 µM |  | > 100 µM | > 100 µM |  | > 100 µM | > 100 µM |  |  |  |  |  |  |  | 
